Experimental data taken from patent US10399940B2, “Substituted pyrrolidines and methods of use” (AbbVie S.à.r.l., priority 2016, dated 2019).
Like-named read-outs stand apart in the source and are kept apart here.

Molecular target: T1, F508delCFTR (Homo sapiens, UniProt P13569, DEL508-508)
T1 construct: expressed in transfected cells; host or cells: CFBE41o- (human lung derived epithelial cell line), doxycycline-inducible expression
Assay: Cell Surface Expression-Horse Radish Peroxidase (CSE-HRP) assay
Format: cell-based
Settings: CFBE41o-F508delCFTR-HRP cells; for Maximum % activity (with co-corrector): with co-corrector (2 μM); for Maximum % activity (with co-corrector) / Maximum % activity (without co-corrector): normalized to on-plate positive control, highest concentration 20 μM
Outline: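 CFBE41o- cells expressed F508delCFTR with HRP in the fourth exofacial loop, induced by 0.5 μg/mL doxycycline for 72 h at 37 °C. Compounds alone or with 2 μM co-corrector ran 18–24 h at 33 °C, 8-point 3-fold from 20 μM. Washed-cell luminol luminescence was normalized to DMSO and positive control, fitted sigmoidally for EC50 (three plates).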

[1] = test compound without co-corrector, 18-24 hours at 33° C., read-out: EC50 (without co-corrector)
[2] = with co-corrector (2 μM of 3-[(2R,4R)-4-({[1-(2,2-difluoro-1,3-benzodioxol-5-yl)cyclopropyl]carbonyl}amino)-7-methoxy-3,4-dihydro-2H-chromen-2-yl]benzoic acid), read-out: EC50 (with co-corrector)

T1 sequence (P13569 with tags, fused parts or gaps DEL508-508): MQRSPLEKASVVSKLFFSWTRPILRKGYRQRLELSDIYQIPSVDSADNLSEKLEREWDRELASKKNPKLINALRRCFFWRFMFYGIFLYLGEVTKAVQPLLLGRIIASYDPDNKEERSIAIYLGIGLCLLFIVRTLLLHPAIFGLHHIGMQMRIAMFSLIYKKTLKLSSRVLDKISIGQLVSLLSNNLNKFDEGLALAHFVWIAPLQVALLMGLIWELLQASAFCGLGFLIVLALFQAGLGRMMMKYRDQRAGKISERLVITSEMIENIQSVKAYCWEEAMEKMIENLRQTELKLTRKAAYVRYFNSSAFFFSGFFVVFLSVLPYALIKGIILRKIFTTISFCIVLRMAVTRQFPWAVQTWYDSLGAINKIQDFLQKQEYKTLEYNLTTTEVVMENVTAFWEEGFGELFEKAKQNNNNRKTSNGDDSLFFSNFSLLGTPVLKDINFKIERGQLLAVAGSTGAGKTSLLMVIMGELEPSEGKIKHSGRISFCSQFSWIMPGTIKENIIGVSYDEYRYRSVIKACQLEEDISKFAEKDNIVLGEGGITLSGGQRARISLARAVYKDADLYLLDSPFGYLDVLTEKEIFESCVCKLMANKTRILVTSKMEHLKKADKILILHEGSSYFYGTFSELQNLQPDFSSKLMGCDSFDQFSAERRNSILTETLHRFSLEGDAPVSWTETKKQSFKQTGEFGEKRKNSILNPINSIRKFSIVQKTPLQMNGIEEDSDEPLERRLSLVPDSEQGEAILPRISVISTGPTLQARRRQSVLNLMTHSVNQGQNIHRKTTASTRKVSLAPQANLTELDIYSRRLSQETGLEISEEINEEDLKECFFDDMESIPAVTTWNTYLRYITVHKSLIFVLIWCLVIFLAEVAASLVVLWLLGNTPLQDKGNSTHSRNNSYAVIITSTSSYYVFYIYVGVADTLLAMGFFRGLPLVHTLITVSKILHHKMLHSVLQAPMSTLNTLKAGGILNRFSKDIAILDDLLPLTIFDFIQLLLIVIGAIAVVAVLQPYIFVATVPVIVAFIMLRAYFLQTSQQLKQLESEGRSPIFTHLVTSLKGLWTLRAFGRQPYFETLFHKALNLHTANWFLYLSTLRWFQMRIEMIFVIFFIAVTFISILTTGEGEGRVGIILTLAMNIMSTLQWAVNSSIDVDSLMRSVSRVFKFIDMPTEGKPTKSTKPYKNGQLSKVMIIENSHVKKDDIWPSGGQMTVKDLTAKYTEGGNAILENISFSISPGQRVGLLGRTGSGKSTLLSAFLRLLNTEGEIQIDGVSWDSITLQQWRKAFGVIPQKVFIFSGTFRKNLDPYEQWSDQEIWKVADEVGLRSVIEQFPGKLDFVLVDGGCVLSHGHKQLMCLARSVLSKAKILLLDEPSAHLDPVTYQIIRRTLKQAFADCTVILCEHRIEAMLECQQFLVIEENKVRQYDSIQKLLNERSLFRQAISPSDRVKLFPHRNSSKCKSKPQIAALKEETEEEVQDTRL

SMILES | EC50 [1] [nM] | EC50 [2] [nM] | Maximum % activity (with co-corrector) | Maximum % activity (without co-corrector)
COc1ncc(C(F)(F)F)cc1CO[C@H]1[C@H](C(C)(C)C)[C@@H](C(=O)O)N(C(=O)C2CCC2)[C@H]1c1cccnc1OC(C)C [Example 160, (2S,3R,4S,5S)-3-tert-butyl-1-(cyclobutanecarbonyl)-4-{[2-methoxy-5-(trifluoromethyl)pyridin-3-yl]methoxy}-5-{2-[(propan-2-yl)oxy]pyridin-3-yl}pyrrolidine-2-carboxylic acid] | 1000 to 10000 | 1000 to 10000 | ++ (≥150 and <350) | + (<100)
COc1ncc(-c2ccc(C)cc2F)cc1CO[C@H]1[C@H](C(C)(C)C)[C@@H](C(=O)O)N(C(=O)OC(C)C)[C@H]1c1ccccc1 [Example 65, (2S,3R,4S,5S)-3-tert-butyl-4-{[5-(2-fluoro-4-methylphenyl)-2-methoxypyridin-3-yl]methoxy}-5-phenyl-1-{[(propan-2-yl)oxy]carbonyl}pyrrolidine-2-carboxylic acid] | < 1000 | < 1000 | +++ (≥350) | + (<100)
COc1ncc(Br)cc1CO[C@H]1[C@H](C(C)(C)C)[C@@H](C(=O)O)N(C(=O)OC(C)C)[C@H]1c1ccccc1F [Example 76, (2S,3R,4S,5S)-4-[(5-bromo-2-methoxypyridin-3-yl)methoxy]-3-tert-butyl-5-(2-fluorophenyl)-1-{[(propan-2-yl)oxy]carbonyl}pyrrolidine-2-carboxylic acid] | 1000 to 10000 | 1000 to 10000 | +++ (≥350) | ++ (≥100 and <200)
COc1nc2ccccc2cc1CO[C@H]1[C@H](C(C)(C)C)[C@@H](C(=O)O)N(C(=O)OC(C)C)[C@H]1c1ccccc1C1CC1 [Example 143, (2S,3R,4S,5S)-3-tert-butyl-5-(2-cyclopropylphenyl)-4-[(2-methoxyquinolin-3-yl)methoxy]-1-{[(propan-2-yl)oxy]carbonyl}pyrrolidine-2-carboxylic acid] | 1000 to 10000 | 1000 to 10000 | +++ (≥350) | ++ (≥100 and <200)
COc1cc(C(F)(F)F)ccc1CO[C@@H]1[C@@H](C(C)(C)C)[C@H](C(=O)O)N(C(=O)OC2CCC2)[C@@H]1c1ccccc1 (racemic) [Example 34, rac-(2R,3S,4R,5R)-3-tert-butyl-1-[(cyclobutyloxy)carbonyl]-4-{[2-methoxy-4-(trifluoromethyl)phenyl]methoxy}-5-phenylpyrrolidine-2-carboxylic acid] | 1000 to 10000 | 1000 to 10000 | +++ (≥350) | + (<100)

The next lines start with the values.

EC50 [1] [nM] | EC50 [2] [nM] | Maximum % activity (with co-corrector) | Maximum % activity (without co-corrector) | SMILES
1000 to 10000 | 1000 to 10000 | ++ (≥150 and <350) | ++ (≥100 and <200) | COc1ncc(C2CCC2)cc1CO[C@H]1[C@H](C(C)(C)C)[C@@H](C(=O)O)N(C(=O)C2CCOCC2)[C@H]1c1cccnc1OC(C)C [Example 134, (2S,3R,4S,5S)-3-tert-butyl-4-[(5-cyclobutyl-2-methoxypyridin-3-yl)methoxy]-1-(oxane-4-carbonyl)-5-{2-[(propan-2-yl)oxy]pyridin-3-yl}pyrrolidine-2-carboxylic acid]
1000 to 10000 | 1000 to 10000 | +++ (≥350) | + (<100) | COc1ncc(Cl)cc1OCCO[C@H]1[C@H](C(C)(C)C)[C@@H](C(=O)O)N(C(=O)[C@@H]2CCCCO2)[C@H]1c1ccccc1C [Example 284, (2S,3R,4S,5S)-3-tert-butyl-4-{2-[(5-chloro-2-methoxypyridin-3-yl)oxy]ethoxy}-5-(2-methylphenyl)-1-[(2S)-oxane-2-carbonyl]pyrrolidine-2-carboxylic acid]
1000 to 10000 | 1000 to 10000 | +++ (≥350) | ++ (≥100 and <200) | COc1ncc(C2CCC2)cc1CO[C@H]1[C@H](C(C)(C)C)[C@@H](C(=O)O)N(C(=O)[C@@H]2CCCO2)[C@H]1c1cccnc1OC(C)C [Example 133, (2S,3R,4S,5S)-3-tert-butyl-4-[(5-cyclobutyl-2-methoxypyridin-3-yl)methoxy]-1-[(2S)-oxolane-2-carbonyl]-5-{2-[(propan-2-yl)oxy]pyridin-3-yl}pyrrolidine-2-carboxylic acid]
1000 to 10000 | < 1000 | +++ (≥350) | ++ (≥100 and <200) | COc1ncc(C2CCC2)cc1CO[C@H]1[C@H](C(C)(C)C)[C@@H](C(=O)O)N(C(=O)[C@@H]2CCCO2)[C@H]1c1ccccc1C(F)(F)F [Example 155, (2S,3R,4S,5S)-3-tert-butyl-4-[(5-cyclobutyl-2-methoxypyridin-3-yl)methoxy]-1-[(2S)-oxolane-2-carbonyl]-5-[2-(trifluoromethyl)phenyl]pyrrolidine-2-carboxylic acid]
< 1000 | < 1000 | +++ (≥350) | ++ (≥100 and <200) | COc1ncc(C2CCC2)cc1CO[C@H]1[C@H](C(C)(C)C)[C@@H](C(=O)O)N(C(=O)OC(C)C)[C@H]1c1ccccc1Br [Example 138, (2S,3R,4S,5S)-5-(2-bromophenyl)-3-tert-butyl-4-[(5-cyclobutyl-2-methoxypyridin-3-yl)methoxy]-1-{[(propan-2-yl)oxy]carbonyl}pyrrolidine-2-carboxylic acid]
1000 to 10000 | < 1000 | +++ (≥350) | +++ (≥200) | COc1ncc(C2CC2)cc1CO[C@H]1[C@H](C(C)(C)C)[C@@H](C(=O)O)N(C(=O)[C@@H]2CCCCO2)[C@H]1c1ccccc1C [Example 217, (2S,3R,4S,5S)-3-tert-butyl-4-[(5-cyclopropyl-2-methoxypyridin-3-yl)methoxy]-5-(2-methylphenyl)-1-[(2S)-oxane-2-carbonyl]pyrrolidine-2-carboxylic acid]
1000 to 10000 | 1000 to 10000 | +++ (≥350) | ++ (≥100 and <200) | COc1ncc(C(F)(F)F)cc1CO[C@H]1[C@H](C(C)(C)C)[C@@H](C(=O)O)N(C(=O)[C@H]2CCCCO2)[C@H]1c1ccccc1Cl [Example 104, (2S,3R,4S,5S)-3-tert-butyl-5-(2-chlorophenyl)-4-{[2-methoxy-5-(trifluoromethyl)pyridin-3-yl]methoxy}-1-[(2R)-oxane-2-carbonyl]pyrrolidine-2-carboxylic acid]
< 1000 | < 1000 | +++ (≥350) | +++ (≥200) | COc1ncc(C2CCC2)cc1CO[C@H]1[C@H](C(C)(C)C)[C@@H](C(=O)O)N(C(=O)C2CCCCC2)[C@H]1c1ccccc1C(C)C [Example 295, (2S,3R,4S,5S)-3-tert-butyl-4-[(5-cyclobutyl-2-methoxypyridin-3-yl)methoxy]-1-(cyclohexanecarbonyl)-5-[2-(propan-2-yl)phenyl]pyrrolidine-2-carboxylic acid]
